This is an account of results in patent US5399696A, “Isoquinolinyl compounds which are intermediates” (Eli Lilly and Company, priority 1993, dated 1995).

A word on the IC50: it is the concentration needed to halve the response being measured.

In test [1] the target is NMDA receptor. The test can be described thus: Radioligand binding: displacement of [^3 H]CGS19755 from synaptosomal membranes of rat forebrain (NMDA receptor affinity). Conditions: [^3 H]CGS19755 10 nM, mean ± standard error (n = 3), values marked ^c single experiment. On the procedure:
(§1) The formula I compounds were tested for their ability to inhibit NMDA, AMPA, and kainic acid receptor binding to rat membranes in a radioligand binding assay using [^3 H]CGS19755, [^3 H]AMPA, and [^3 H]KA. For all radioligand binding assays, male Sprague-Dawley rats were used. […] Non-specific binding was determined using 10 μM L-glutamate. Samples were incubated in an ice-bath for 30 minutes, and bound ligand was separated from the free ligand by rapid filtration through WHATMAN GF/B glass fiber filters. Murphy et al, British J. Pharmacol., 95, 932-938 (1988). Kainate binding was performed using washed synaptosomal membranes from the rat forebrain as described by Simon et al. Simon et al, J. Neurochem., 26, 141-147 (1976). Tritiated kainate (5 nM) was added to 50 mM Tris-HCl buffer (pH 7.4 at 4° C.) containing 200-300 μg/ml of tissue protein. Samples were incubated for 30 minutes in an ice-bath, then rapidly filtered using a Brandel cell harvester and WHATMAN GF/C filters. Filters were washed twice with 3 ml of cold buffer. Non-specific binding was determined using 100 μM non-labeled kainate. The binding of [^3 H]AMPA (5 nM) was conducted with crude membranes of rat forebrain in the presence of 100 mM KSCN as described by Nielson et al. Nielson et al, Eur. J. Med. Chem. Chim. Ther., 21, 433-437 (1986). Non-specific binding was determined with 10 μM non-labeled AMPA. The concentration of the formula I compound that inhibited 50% binding (IC50, mean ±standard error, n=3) as calculated by linear regression of displacement data transformed to the Hill equation as described by Bennett. Bennett, Neurotransmitter Receptor Binding, 57-90 (1978).

Test [2] addresses AMPA receptor. The test can be described thus: Radioligand binding: [^3 H]AMPA binding with crude membranes of rat forebrain. On the procedure:
as §1

In test [3] the target is kainic acid (KA) receptor. The test can be described thus: Radioligand binding: tritiated kainate binding with washed synaptosomal membranes from the rat forebrain. Particulars: tritiated kainate 5 nM, pH 7.4, mean ± standard error (n = 3), values marked ^c single experiment. On the procedure: as §1
Test [4] has as its system NMDA receptor. In words: Antagonism of NMDA-induced depolarization of rat cortical wedges. The class given is cell-based. Conditions: NMDA 40 μM, mean ± standard error (n = 3), read-out: IC50 NMDA, antagonism of cortical wedge depolarization. On the procedure: (§2) The depolarization of rat cortical wedges was used to test the selectivity and potency of the formula I compounds as AMPA antagonists using a technique similar to that described by Harrison and Simmonds. Harrison and Simmonds, Bri. J. Pharmacol., 84, 381-391 (1984). Generally, 4-ml aliquots of NMDA (40 μM), AMPA (40 μM), and kainate (10 μM) were superfused (2 ml/min.) on the grey matter at intervals of 15-20 minutes until stable responses were attained. The tissue was then exposed for 15 minutes to various concentrations of the formula I compounds before retesting the agonists. The IC50 values were calculated from linear regression of log dose-response curves, each point the mean of at least three observations on separate slices from more than one animal.

Test [5] relates to AMPA receptor. The test can be described thus: Antagonism of AMPA-induced depolarization of rat cortical wedges. The class given is cell-based. Conditions: for IC50: AMPA 40 μM, mean ± standard error (n = 3), read-out: IC50 AMPA, antagonism of cortical wedge depolarization. On the procedure:
as §2

The subject of test [6] is kainic acid (KA) receptor. In words: Antagonism of kainate-induced depolarization of rat cortical wedges. The class given is cell-based. Particulars: kainate 10 μM, mean ± standard error (n = 3). On the procedure:
as §2

[7] abbreviates: Table II, enantiopure, [^3 H]AMPA 5 nM, 100 mM KSCN, mean ± standard error (n = 3), values marked ^c single experiment, read-out: IC50 AMPA, receptor binding.
[8] abbreviates: Table I, racemic, [^3 H]AMPA 5 nM, 100 mM KSCN, mean ± standard error (n = 3), values marked ^c single experiment, read-out: IC50 AMPA, receptor binding.
The mark [9] stands for this setting: text summary of Table I, racemic, read-out: selectively displaced ^3 H-AMPA with IC50 values.

Regarding `O=C(O)[C@@H]1C[C@H]2C[C@@H](CS(=O)(=O)c3nc[nH]n3)CC[C@H]2CN1` [Compound 26, (3S,4aR,6S,8aR)-6-[(1(2-4)H-1,2,4-Triazole-5-yl)sulfonylmethyl]decahydroisoquinoline-3-carboxylic Acid], the IC50 is above 100 µM on NMDA receptor [1] (Table II, enantiopure) and 0.63 µM at AMPA receptor [2] (setting [7]). For the same compound, in test [3] (Table II, enantiopure), the “IC50 KA, receptor binding” value was above 100 µM.

In the case of `O=C(O)CC[C@H]1CC[C@H]2CN[C@H](C(=O)O)C[C@H]2C1` (racemic) [Compound 11, (3SR,4aRS,6RS,8aRS)-6-(2-Carboxyethyl)-decahydroisoquinoline-3-carboxylic Acid], the IC50 was determined as 43.9 ± 4.1 µM on NMDA receptor [1] (Table I, racemic); 27.8 ± 0.6 µM on AMPA receptor [2] (setting [8]); 57 ± 4.4 µM in the test with NMDA receptor [4] (Table III, racemic); 42 ± 6.5 µM in the test with AMPA receptor [5] (Table III, racemic). Further, the “IC50 KA, receptor binding” value in test [3] (Table I, racemic) is above 100 µM. Moreover, the “IC50 KA, antagonism of cortical wedge depolarization” value (from here on “IC50 KA, antagonism”) in test [6] (Table III, racemic) was above 100 µM.

As to `O=C(O)[C@@H]1C[C@H]2C[C@H](CCS(=O)(=O)O)CC[C@H]2CN1` (racemic) [Compound 12, (3SR,4aRS,6RS,8aRS)-6-(2-Sulfoethyl)decahydroisoquinoline-3-carboxylic Acid], the IC50 on NMDA receptor [1] (Table I, racemic) is 61.8 µM; at AMPA receptor [2] (setting [8]) it was 11.1 µM; in the test with NMDA receptor [4] (Table III, racemic), above 100 µM; with AMPA receptor [5] (Table III, racemic) it was 31.4 ± 1.7 µM. In test [3] (Table I, racemic), the “IC50 KA, receptor binding” value was above 100 µM. Further, the “IC50 KA, antagonism” value in test [6] (Table III, racemic) was determined as 100 µM.

As to `O=C(O)[C@@H]1C[C@H]2C[C@H](CCc3nn[nH]n3)CC[C@H]2CN1` (relative stereo) [Compound 2, (3SR,4aRS,6SR,8aRS)-6-[2-(1(2)H-Tetrazole-5-yl)ethyl]decahydroisoquinoline-3-carboxylic Acid], the IC50 was 60.6 ± 24.8 µM on NMDA receptor [1] (Table I, racemic); 59.6 ± 4.3 µM at AMPA receptor [2] (setting [8]); above 100 µM in the test with NMDA receptor [4] (Table III, racemic). In test [3] (Table I, racemic), the “IC50 KA, receptor binding” value is 180.0 ± 22.1 µM.

In the case of `O=C(O)[C@@H]1C[C@H]2C[C@@H](CCSc3nnn[nH]3)CC[C@H]2CN1` (racemic) [Compound 9, (3SR,4aRS,6SR,8aRS)-6-[3-(1(2)H-Tetrazole-5-yl)-3-thiaprop-1-yl]decahydroisoquinoline-3-carboxylic Acid], the IC50 at NMDA receptor [1] (Table I, racemic) was above 100 µM; on AMPA receptor [2] (setting [8]), 56.2 ± 4.6 µM; on NMDA receptor [4] (Table III, racemic) it was above 100 µM; at AMPA receptor [5] (Table III, racemic), 32.2 ± 1.7 µM. Moreover, the “IC50 KA, receptor binding” value in test [3] (Table I, racemic) was above 100 µM. For the same compound, the “IC50 KA, antagonism” value in test [6] (Table III, racemic) was above 100 µM.

Take `O=C(O)[C@@H]1C[C@H]2C[C@@H](CCCc3nnn[nH]3)CC[C@H]2CN1` (racemic) [Compound 6, (3SR,4aRS,6SR,8aRS)-6-[(1(2)H-Tetrazole-5-yl)prop-1-yl]decahydroisoquinoline-3-carboxylic Acid]: the IC50 on NMDA receptor [1] (Table I, racemic) came out at 27 ± 9.9 µM; at AMPA receptor [2] (setting [8]), 16.8 ± 0.46 µM; at AMPA receptor [5] (Table III, racemic), 22 ± 3.8 µM. Further, in test [3] (Table I, racemic), the “IC50 KA, receptor binding” value stood at 18.65 ± 0.33 µM.

As to `CS(=O)(=O)NC(=O)CC[C@H]1CC[C@H]2CN[C@H](C(=O)O)C[C@H]2C1` (relative stereo) [Compound 16, (3SR,4aRS,6RS,8aRS)-6-[2-((N-Methanesulfonyl)carboxamido)ethyl]decahydroisoquinoline-3-carboxylic Acid], the IC50 is above 100 µM at NMDA receptor [1] (Table I, racemic) and 80 µM at AMPA receptor [2] (setting [8]). Besides, the “IC50 KA, receptor binding” value in test [3] (Table I, racemic) was above 100 µM.

As for `O=C(O)[C@@H]1C[C@H]2C[C@@H](C(Cc3nn[nH]n3)c3ccccc3)CC[C@H]2CN1` (stereo partly drawn) [Compound 19, (3SR,4aRS,6RS,8aRS)-6-[2-(1(2)H-Tetrazole-5-yl)-1-phenylethyl]decahydroisoquinoline-3-carboxylic Acid], the IC50 is 13.8 µM on NMDA receptor [1] (Table I, racemic); 6.58 µM at AMPA receptor [2] (setting [8]); below 15 µM on AMPA receptor [2] (setting [9]); 100 µM with NMDA receptor [4] (Table III, racemic); 9 ± 2.8 µM with AMPA receptor [5] (Table III, racemic). The “IC50 KA, receptor binding” value in test [3] (Table I, racemic) is above 100 µM. Also, the “selective AMPA receptor antagonism (in words)” value in the test on AMPA receptor [5] (Table III, cortical wedge, racemic) was “selective AMPA receptor antagonists”. Moreover, the “IC50 KA, antagonism” value in test [6] (Table III, racemic) stood at 23.6 ± 5.6 µM.

As for `O=C(CC[C@H]1CC[C@H]2CN[C@H](C(=O)O)C[C@H]2C1)Nc1nn[nH]n1` (relative stereo) [Compound 17, (3SR,4aRS,6RS,8aRS)-6-[2-(N-(1(2)H-Tetrazole-5-yl)carboxamido)ethyl]decahydroisoquinoline-3-carboxylic Acid], the IC50 at NMDA receptor [1] (Table I, racemic) is above 100 µM; on AMPA receptor [2] (setting [8]), 45.7 µM. For the same compound, the “IC50 KA, receptor binding” value in test [3] (Table I, racemic) is above 100 µM.

Consider `O=C(O)[C@H]1C[C@@H]2C[C@H](CS(=O)(=O)c3nc[nH]n3)CC[C@@H]2CN1` [Compound 27, (3R,4aS,6R,8aS)-6-[(1(2-4)H-1,2,4-Triazole-5-yl)sulfonylmethyl]decahydroisoquinoline-3-carboxylic Acid], for which the 50% inhibitory concentration (IC50) on NMDA receptor [1] (Table II, enantiopure) turned out to be 60.9 µM; on AMPA receptor [2] (setting [7]) it was 23.6 µM. Also, the “IC50 KA, receptor binding” value in test [3] (Table II, enantiopure) was above 100 µM.

Turning to `O=CN(Cc1nnn[nH]1)[C@H]1CC[C@H]2CN[C@H](C(=O)O)C[C@@H]2C1` (racemic) [Compound 3, (3SR,4aRS,6SR,8aRS)-6-[N-(1(2)H-Tetrazole-5-yl)methylformamido]-decahydroisoquinoline-3-carboxylic Acid], the concentration for half-maximal inhibition (IC50) at NMDA receptor [1] (Table I, racemic) was above 100 µM; at AMPA receptor [2] (setting [8]), 29.1 µM. Besides, the “IC50 KA, receptor binding” value in test [3] (Table I, racemic) is above 100 µM.

As to `CC(Cc1nn[nH]n1)[C@H]1CC[C@H]2CN[C@H](C(=O)O)C[C@H]2C1` (stereo partly drawn) [Compound 18, (3SR,4aRS,6RS,8aRS)-6-[2-(1(2)H-Tetrazole-5-yl)-1-methylethyl]decahydroisoquinoline-3-carboxylic Acid], the half-inhibitory concentration (IC50) is 43.1 µM at NMDA receptor [1] (Table I, racemic); 3.37 µM on AMPA receptor [2] (setting [8]); below 15 µM at AMPA receptor [2] (setting [9]). In addition, in test [3] (Table I, racemic), the “IC50 KA, receptor binding” value turned out to be 28.2 µM.

As to `O=C(O)[C@@H]1C[C@H]2C[C@@H](CCCCc3nnn[nH]3)CC[C@H]2CN1` (racemic) [Compound 10, (3SR,4aRS,6SR,8aRS)-6-[(1(2)H-Tetrazole-5-yl)but-1-yl]decahydroisoquinoline-3-carboxylic Acid], the IC50 at NMDA receptor [1] (Table I, racemic) is above 100 µM; at AMPA receptor [2] (setting [8]), 32 µM; at NMDA receptor [4] (Table III, racemic) it was above 100 µM; at AMPA receptor [5] (Table III, racemic) it was 27.6 ± 3.1 µM. The “IC50 KA, receptor binding” value in test [3] (Table I, racemic) was above 100 µM.

In the case of `O=C(O)[C@@H]1C[C@H]2C[C@H](CCc3nn[nH]n3)CC[C@H]2CN1` [Compound 22, (3S,4aR,6S,8a,R)-6-[2-(1(2)H-Tetrazole-5-yl)ethyl]decahydroisoquinoline-3-carboxylic Acid], the half-maximal inhibitory concentration (IC50) at AMPA receptor [2] (setting [7]) was 15.3 µM; in the test on NMDA receptor [4] (Table IV, enantiopure), above 100 µM; in the test on AMPA receptor [5] (Table IV, enantiopure), 21.9 ± 3.3 µM. In addition, the “IC50 KA, receptor binding” value in test [3] (Table II, enantiopure) worked out at 85.3 µM. The “IC50 KA, antagonism” value in test [6] (Table IV, enantiopure) was 28.9 ± 9.2 µM.

Take `O=C(O)[C@@H]1C[C@H]2C[C@@H](CCc3nn[nH]n3)CC[C@H]2CN1` (relative stereo) [Compound 1, (3 SR,4aRS,6RS,8aRS)-6-[2-(1(2)H-Tetrazole-5-yl)ethyl]decahydroisoquinoline-3-carboxylic Acid]: the half-maximal inhibitory concentration (IC50) at NMDA receptor [1] (Table I, racemic) worked out at 26.4 ± 1.95 µM; with NMDA receptor [4] (Table III, racemic), 61.3 ± 3 µM; in the test on AMPA receptor [5] (Table III, racemic) it was 6 ± 1 µM. Besides, the “IC50 KA, receptor binding” value in test [3] (Table I, racemic) was found to be 246.98 ± 7.5 µM. Besides, the “IC50 KA, antagonism” value in test [6] (Table III, racemic) came to 31.7 ± 4.4 µM.
